Measured values: patent US20240158446A1, “CYCLIC COMPOUND HAVING SELECTIVE INHIBITORY ACTION ON KRAS OVER HRAS AND NRAS” (CHUGAI SEIYAKU KABUSHIKI KAISHA, priority 2021, published 2024)
Where two headings read alike, the source gives them in different places. Where a SMILES comes first, the peptide text is derived from it. Bridges are numbered along the chain shown (N, C = ends). [ ]: non-standard residue; d: D form. The star is where a group is joined. hPhe(3,5-F2-4-CF3) = N[C@@H](CCc1cc(F)c(C(F)(F)F)c(F)c1)C(=O)O; hPhe(3-Cl-4-CF3) = N[C@@H](CCc1ccc(C(F)(F)F)c(Cl)c1)C(=O)O; NPrPhe(4-CF3) = CCCN[C@@H](Cc1ccc(C(F)(F)F)cc1)C(=O)O; NMeAbu(4,4,4-F3) = CN[C@@H](CC(F)(F)F)C(=O)O; NMeGly(cPent) = CN[C@H](C(=O)O)C1CCCC1; αMeI = CC[C@H](C)[C@](C)(N)C(=O)O; NMeD = CN[C@@H](CC(=O)O)C(=O)O; NMeL = CN[C@@H](CC(C)C)C(=O)O; NEtAla = CCN[C@@H](C)C(=O)O; Morpholide = C1CN(*)CCO1; NMeA = CN[C@@H](C)C(=O)O; Ac5c = NC1(C(=O)O)CCCC1; Aze = O=C(O)[C@@H]1CCN1; Sar = CNCC(=O)O

Tests used:
[1] = biological target: GDP-bound KRAS wild-type protein (Homo sapiens, UniProt P01116); test: Binding to KRAS by surface plasmon resonance (SPR), Single Cycle Kinetics; conditions: GDP-bound KRAS wild-type protein, read-out: KRAS KD
GDP-bound KRAS wild-type protein, sequence (P01116 whole entry): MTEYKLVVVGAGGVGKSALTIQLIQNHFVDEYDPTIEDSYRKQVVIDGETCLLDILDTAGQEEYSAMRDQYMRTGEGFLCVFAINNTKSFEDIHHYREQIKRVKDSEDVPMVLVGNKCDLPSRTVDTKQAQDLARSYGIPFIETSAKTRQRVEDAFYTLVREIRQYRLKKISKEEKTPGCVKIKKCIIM

[2] = biological target: GDP-bound HRAS wild-type protein (Homo sapiens, UniProt P01112); test: Binding to HRAS by surface plasmon resonance (SPR), Single Cycle Kinetics; conditions: SPR, GDP-bound HRAS wild-type protein vs GDP-bound KRAS wild-type protein
GDP-bound HRAS wild-type protein, sequence (P01112 whole entry): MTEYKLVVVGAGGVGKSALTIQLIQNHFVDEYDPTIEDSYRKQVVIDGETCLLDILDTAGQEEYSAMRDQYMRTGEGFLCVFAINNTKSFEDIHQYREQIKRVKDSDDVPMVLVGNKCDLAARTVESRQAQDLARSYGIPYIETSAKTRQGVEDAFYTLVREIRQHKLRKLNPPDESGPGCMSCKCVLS

[3] = biological target: GDP-bound NRAS wild-type protein (Homo sapiens, UniProt P01111); test: Binding to NRAS by surface plasmon resonance (SPR), Single Cycle Kinetics; conditions: SPR, GDP-bound NRAS wild-type protein vs GDP-bound KRAS wild-type protein
GDP-bound NRAS wild-type protein, sequence (P01111 whole entry): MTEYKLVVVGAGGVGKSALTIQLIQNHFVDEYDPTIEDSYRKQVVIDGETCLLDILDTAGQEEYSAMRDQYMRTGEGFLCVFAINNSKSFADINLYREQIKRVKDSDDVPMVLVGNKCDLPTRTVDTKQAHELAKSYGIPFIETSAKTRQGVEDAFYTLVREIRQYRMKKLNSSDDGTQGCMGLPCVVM

[4] = SPR Single Cycle Kinetics, 1:1 binding model

| Kd [1, 4] [nM] | Kd ([1]; SPR, Single Cycle Kinetics) [nM] | SMILES | HRAS/KRAS (ratio of KD value for HRAS to KD value for KRAS) [2] | NRAS/KRAS (ratio of KD value for NRAS to KD value for KRAS) [3] | HRAS/KRAS (ratio of KD value with respect to HRAS to KD value with respect to KRAS) [2] | NRAS/KRAS (ratio of KD value with respect to NRAS to KD value with respect to KRAS) [3] |
| --- | --- | --- | --- | --- | --- | --- |
| 0.015 | – | C=CC[C@H]1C(=O)N[C@@H]([C@@H](C)CC)C(=O)N(C)CC(=O)N(C)[C@H]2CCCCN(C2=O)[C@@H](Cc2ccc(C(F)(F)F)cc2)C(=O)N(C)CC(=O)N[C@@H](CCc2cc(F)c(C(F)(F)F)c(F)c2)C(=O)N2C[C@H](OCC)C[C@H]2C(=O)NC2(CCC2)C(=O)N(C)[C@@H](C2CCCC2)C(=O)N(C)[C@H](C(=O)N(C)C)CC(=O)N1C [PP0695] | – | – | C (A compound having a KD ratio of 0.1 or more and less than 3 is denoted as C) | C (A compound having a KD ratio of 0.1 or more and less than 3 is denoted as C) |
| – | 1.3 | CCO[C@@H]1C[C@H]2C(=O)NC3(CCC3)C(=O)N(C)[C@@H](C3CCCC3)C(=O)N(C)[C@H](C(=O)N(C)C)CC(=O)N(C)[C@@H](CC)C(=O)N[C@@H]([C@@H](C)CC)C(=O)N(C)CC(=O)N(C)[C@H]3CCCCCN(C3=O)[C@@H](Cc3ccc(C(F)(F)F)cc3)C(=O)N(C)CC(=O)N[C@@H](CCc3cc(Cl)c(C(F)(F)F)c(Cl)c3)C(=O)N2C1 [PP0989] | B (a compound having 3 or more and less than 10 is denoted as B) | B (a compound having 3 or more and less than 10 is denoted as B) | – | – |
| 4 | – | CCCN1C(=O)CN(C)C(=O)CN(C)C(=O)[C@H]([C@@H](C)CC)NC(=O)[C@H](CC(C)C)N(C)C(=O)C[C@@H](C(=O)N2CCOCC2)N(C)C(=O)[C@H](C2CCCC2)N(C)C(=O)[C@](C)([C@@H](C)CC)NC(=O)[C@@H]2CCCN2C(=O)[C@H](CCc2cc(F)c(C(F)(F)F)c(F)c2)NC(=O)CN(C)C(=O)[C@@H]1Cc1ccc(C(F)(F)F)cc1 [PP0757] ([NMeL]I[Sar][Sar][NPrPhe(4-CF3)][Sar][hPhe(3,5-F2-4-CF3)]P[αMeI][NMeGly(cPent)][NMeD]-Morpholide; lactam N-11) | – | – | C (A compound having a KD ratio of 0.1 or more and less than 3 is denoted as C) | B (a compound having 3 or more and less than 10 is denoted as B) |

Further lines, the compound ahead of its results:

| SMILES | Kd [1, 4] [nM] | Kd ([1]; SPR, Single Cycle Kinetics) [nM] | HRAS/KRAS (ratio of KD value for HRAS to KD value for KRAS) [2] | NRAS/KRAS (ratio of KD value for NRAS to KD value for KRAS) [3] | HRAS/KRAS (ratio of KD value with respect to HRAS to KD value with respect to KRAS) [2] | NRAS/KRAS (ratio of KD value with respect to NRAS to KD value with respect to KRAS) [3] |
| --- | --- | --- | --- | --- | --- | --- |
| CCCN1C(=O)[C@@H]2CCN2C(=O)[C@H](C)N(CC)C(=O)[C@H]([C@@H](C)CC)NC(=O)[C@H](CC(C)C)N(C)C(=O)C[C@@H](C(=O)N2CCOCC2)N(C)C(=O)[C@H](C2CCCC2)N(C)C(=O)C2(CCCC2)NC(=O)[C@@H]2CCCN2C(=O)[C@H](CCc2ccc(C(F)(F)F)c(Cl)c2)NC(=O)CN(C)C(=O)[C@@H]1Cc1ccc(C(F)(F)F)cc1 [PP0152] ([NMeL]I[NEtAla][Aze][NPrPhe(4-CF3)][Sar][hPhe(3-Cl-4-CF3)]P[Ac5c][NMeGly(cPent)][NMeD]-Morpholide; lactam N-11) | 2.8 | – | B (a compound having 3 or more and less than 10 is denoted as B) | C (A compound having a KD ratio of 0.1 or more and less than 3 is denoted as C) | – | – |
| CCCN1C(=O)[C@@H]2CCN2C(=O)[C@H](C)N(C)C(=O)[C@H]([C@@H](C)CC)NC(=O)[C@H](CC(F)(F)F)N(C)C(=O)C[C@@H](C(=O)N2CCOCC2)N(C)C(=O)[C@H](C2CCCC2)N(C)C(=O)C2(CCCC2)NC(=O)[C@@H]2CCCN2C(=O)[C@H](CCc2ccc(C(F)(F)F)c(Cl)c2)NC(=O)CN(C)C(=O)[C@@H]1Cc1ccc(C(F)(F)F)cc1 [PP0191] ([NMeAbu(4,4,4-F3)]I[NMeA][Aze][NPrPhe(4-CF3)][Sar][hPhe(3-Cl-4-CF3)]P[Ac5c][NMeGly(cPent)][NMeD]-Morpholide; lactam N-11) | 0.14 | – | B (a compound having 3 or more and less than 10 is denoted as B) | C (A compound having a KD ratio of 0.1 or more and less than 3 is denoted as C) | – | – |
| CCCN1C(=O)CN(C)C(=O)CNC(=O)[C@H]([C@@H](C)CC)NC(=O)[C@H](CC(C)C)N(C)C(=O)C[C@@H](C(=O)N2CCOCC2)NC(=O)[C@H](C2CCCC2)N(C)C(=O)C2(CCCC2)NC(=O)[C@@H]2CCCN2C(=O)[C@H](CCc2ccc(C(F)(F)F)c(Cl)c2)NC(=O)CN(C)C(=O)[C@@H]1Cc1ccc(C(F)(F)F)cc1 [PP0325] ([NMeL]IG[Sar][NPrPhe(4-CF3)][Sar][hPhe(3-Cl-4-CF3)]P[Ac5c][NMeGly(cPent)]D-Morpholide; lactam N-11) | 1.1 | – | B (a compound having 3 or more and less than 10 is denoted as B) | B (a compound having 3 or more and less than 10 is denoted as B) | – | – |
